These are literature values, as cited in US11230553B2, “Nannocystin process and products” (THE RESEARCH FOUNDATION FOR THE STATE UNIVERSITY OF NEW YORK, priority 2016, dated 2022).

The test system of data set [1] is 472 cancer cell lines.
The subject of data set [2] is HCT116. Conditions: HCT116 cancer cell line; read-out: IC50 against HCT116.
Data set [3] has as its system PC3. Particulars: PC3 cancer cell line; read-out: IC50 against PC3.
Data set [4] relates to HL60. Particulars: HL60 cancer cell line; read-out: IC50 against HL60.

Broadly, the IC50 is the point on the concentration scale where inhibition reaches its midpoint. For the compound `CC[C@H](C)[C@H]1C(=O)N[C@H](Cc2cc(Cl)c(O)c(Cl)c2)C(=O)N[C@@H](C(C)(C)O)C(=O)O[C@H](c2ccccc2)[C@H](C)/C=C/C=C(\C)[C@H](OC)C[C@@H]2O[C@@]2(C)C(=O)N1C` [nannocystin A, (1), (1R,4S,7R,10S,13S,14R,15E,17E,19R,21S)-4-((S)-sec-butyl)-7-(3,5-dichloro-4-hydroxybenzyl)-10-(2-hydroxypropan-2-yl)-19-methoxy-1,3,14,18-tetramethyl-13-phenyl-12,22-dioxa-3,6,9-triazabicyclo[19.1.0]docosa-15,17-diene-2,5,8,11-tetraone], the “anti-proliferative properties against 472 cancer cell lines” value in data set [1] is listed as “nanomolar concentration range”. In addition, the IC50 in data set [2] is 1.2 nM; in data set [3], 1 nM; in data set [4] it was 12 nM.
